{
  "source": "patent US20190083563A1",
  "about": "(priority 2014, published 2019)",
  "key": {"in vitro": {"test": "in vitro", "conditions": "dog"}, "influenza B virus": {"system": "influenza B virus", "test": "microbe, parasite or virus in culture", "assay_type": "cell-based"}, "influenza virus H1N1 [1]": {"system": "influenza virus H1N1", "test": "Investigation on cell binding of influenza virus (virus and sample mixed, 4° C., MTT cell viability)", "assay_type": "cell-based, influenza A virus"}, "influenza A virus H1N1": {"system": "influenza A virus H1N1", "test": "microbe, parasite or virus in culture", "assay_type": "cell-based"}, "influenza A virus H5N1": {"system": "influenza A virus H5N1", "test": "microbe, parasite or virus in culture", "assay_type": "cell-based"}, "influenza virus H1N1 [2]": {"system": "influenza virus H1N1", "assay_type": "cell-based, influenza A virus"}, "influenza A virus H3N2": {"system": "influenza A virus H3N2", "test": "microbe, parasite or virus in culture", "assay_type": "cell-based"}},
  "data": [
    {"smiles": "CCOC(=O)C1=C[C@@H](OC(CC)CC)[C@H](NC(C)=O)[C@@H](N)C1", "note": "[Tamiflu]", "values": [
      {"measurement": "CC50", "setting": "in vitro", "result": 1110, "unit": "µg/mL"},
      {"measurement": "SI", "setting": "influenza B virus; CC50 value divided by the EC50 value", "result": 81},
      {"measurement": "EC50", "setting": "influenza B virus; MDCK cells, post-treatment, 48 hours", "result": 13.7, "unit": "µg/mL"},
      {"measurement": "antiviral effect in virus binding test", "setting": "influenza virus H1N1 [1]", "result": "no antiviral effect"},
      {"measurement": "observing the cells by a microscope, post-treatment", "setting": "influenza A virus H1N1", "result": "many cells were infected and dead"},
      {"measurement": "SI", "setting": "influenza A virus H1N1; H1N1, CC50 value divided by the EC50 value", "result": 317},
      {"measurement": "EC50", "setting": "influenza A virus H1N1; Influenza A virus, H1N1, MDCK cells, post-treatment, 48 hours", "result": 3.5, "unit": "µg/mL"},
      {"measurement": "SI", "setting": "influenza A virus H5N1; H5N1, CC50 value divided by the EC50 value", "result": 740},
      {"measurement": "EC50", "setting": "influenza A virus H5N1; Influenza A virus, H5N1, MDCK, 48 h", "result": 1.5, "unit": "µg/mL"},
      {"measurement": "CPE of cells, virus preventive effect", "setting": "influenza virus H1N1 [2]", "result": "all the cells treated with Tamiflu were dead"},
      {"measurement": "observing the cells using a microscope, virus preventive effect", "setting": "influenza virus H1N1 [2]", "result": "infected cell state"},
      {"measurement": "SI", "setting": "influenza A virus H3N2; H3N2, CC50 value divided by the EC50 value", "result": 317},
      {"measurement": "EC50", "setting": "influenza A virus H3N2; Influenza A virus, H3N2, MDCK cells, post-treatment, 48 hours", "result": 3.5, "unit": "µg/mL"}
    ]}
  ]
}
